According to patent US11566007B2, “Ras inhibitors” (Revolution Medicines, Inc., priority 2019, dated 2023):
Like-named read-outs stand apart in the source and are kept apart here.

Assays:
[1] = system: NCI-H358 cells (K-Ras G12C); assay: Potency assay: pERK in NCI-H358 cells; assay type: cell-based, human; conditions: H358 KRAS G12C, read-out: pERK EC50
Method in brief: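 4 h cpd, 37 °C; 10-pt 3-fold series, 10 mM DMSO top stock, duplicates. Readout pERK: AlphaLISA SureFire Ultra or In-Cell Western (IR-800CW secondary, DRAQ5 DNA stain). IC50, 4-PL fit vs log conc.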

NCI-H358 (K-Ras G12C) = assay: CellTiter-Glo cell viability assay, NCI-H358; assay type: cell-based, human; conditions: NCI-H358, 5-day treatment, class symbols, read-out: Additional H358 Cell Viability assay data (K-Ras G12C, IC50)
Method in brief: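 Viability measured by CellTiter-Glo luminescence on day 5 following direct addition of compound to plated cells. Values expressed as percent of mean DMSO signal; curves fitted with a four-parameter logistic model.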

KRAS Q61H = KRAS Q61H (Homo sapiens (Human), UniProt P01116+P62937, Q61H); assay: Ras-Raf (BRAF RBD) disruption / FRET / MOA assay, KRAS Q61H; assay type: biochemical
Chain of KRAS Q61H (P01116-2 other isoform, or with tags, fused parts or gaps Q61H): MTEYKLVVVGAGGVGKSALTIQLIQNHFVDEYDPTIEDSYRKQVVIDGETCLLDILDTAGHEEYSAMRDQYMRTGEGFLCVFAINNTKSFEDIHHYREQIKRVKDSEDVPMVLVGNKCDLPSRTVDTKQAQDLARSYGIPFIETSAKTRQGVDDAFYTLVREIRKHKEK
Chain of KRAS Q61H (P62937 whole entry, canonical isoform): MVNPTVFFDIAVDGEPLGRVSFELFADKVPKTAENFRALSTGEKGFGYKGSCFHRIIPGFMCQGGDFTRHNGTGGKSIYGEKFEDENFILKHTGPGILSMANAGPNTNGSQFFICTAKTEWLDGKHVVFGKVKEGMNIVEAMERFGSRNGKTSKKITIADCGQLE
Description: (§1) The purpose of this biochemical assay is to measure the ability of test compounds to facilitate ternary complex formation between a nucleotide-loaded Ras isoform and cyclophilin A; the resulting ternary complex disrupts binding to a BRAF^RBD construct, inhibiting Ras signaling through a RAF effector.
(§2) […]. Compound is present in plate wells as a 10-point 3-fold dilution series starting at a final concentration of 30 μM. After incubation at 25° C. for 3 hours, a mixture of Anti-His Eu-W1024 and anti-GST allophycocyanin is then added to assay sample wells at final concentrations of 10 nM and 50 nM, respectively, and the reaction incubated for an additional 1.5 hours. […] Compounds that facilitate disruption of a Ras:RAF complex are identified as those eliciting a decrease in the TR-FRET ratio relative to DMSO control wells.
(§3) Note—The following protocol describes a procedure for monitoring disruption of K-Ras G12C (GMP-PNP) binding to BRAF^RBD by a compound of the invention. This protocol may also be executed substituting other Ras proteins or nucleotides.
(§4) The purpose of this biochemical assay was to measure the ability of test compounds to facilitate ternary complex formation between a nucleotide-loaded K-Ras isoform and Cyclophilin A; the resulting ternary complex disrupts binding to a BRAF^RBD construct, inhibiting K-Ras signaling through a RAF effector. Data is reported as IC50 values.
(§5) […]. Compound was present in plate wells as a 10-point 3-fold dilution series starting at a final concentration of 30 μM. After incubation at 25° C. for 3 hours, a mixture of Anti-His Eu-W1024 and anti-GST allophycocyanin was then added to assay sample wells at final concentrations of 10 nM and 50 nM, respectively, and the reaction incubated for an additional 1.5 hours. […] Compounds that facilitate disruption of a K-Ras:RAF complex were identified as those eliciting a decrease in the TR-FRET ratio relative to DMSO control wells.

KRAS G12D = KRAS G12D (Homo sapiens (Human), UniProt P01116+P62937, G12D); assay: Ras-Raf (BRAF RBD) disruption / FRET / MOA assay, KRAS G12D; assay type: biochemical
Chain of KRAS G12D (P01116-2 other isoform, or with tags, fused parts or gaps G12D): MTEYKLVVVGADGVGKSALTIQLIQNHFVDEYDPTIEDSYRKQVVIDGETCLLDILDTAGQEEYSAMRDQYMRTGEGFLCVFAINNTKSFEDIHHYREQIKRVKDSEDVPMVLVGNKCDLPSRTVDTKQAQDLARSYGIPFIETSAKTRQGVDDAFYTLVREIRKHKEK
Chain of KRAS G12D (P62937 whole entry): as the sequence (P62937 whole entry, canonical isoform) above
Method in brief: (§6)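 Ras:RAF disruption was scored as a fall in TR-FRET ratio relative to DMSO. Compound ranged in 3-fold steps over 10 points from 30 μM final; incubation ran 3 h at 25° C, detection antibodies a further 1.5 h. Reported as IC50.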

KRAS G12S = KRAS G12S (Homo sapiens (Human), UniProt P01116+P62937, G12S); assay: Ras-Raf (BRAF RBD) disruption / FRET / MOA assay, KRAS G12S; assay type: biochemical
Chain of KRAS G12S (P01116-2 other isoform, or with tags, fused parts or gaps G12S): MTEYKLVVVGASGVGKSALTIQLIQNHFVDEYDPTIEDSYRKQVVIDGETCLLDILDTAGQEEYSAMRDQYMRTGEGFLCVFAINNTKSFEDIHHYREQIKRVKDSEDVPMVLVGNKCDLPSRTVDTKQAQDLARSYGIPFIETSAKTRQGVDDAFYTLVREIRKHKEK
Chain of KRAS G12S (P62937 whole entry): as the sequence (P62937 whole entry, canonical isoform) above
Method in brief: as §6

KRAS G12V = KRAS G12V (Homo sapiens (Human), UniProt P01116+P62937, G12V); assay: Ras-Raf (BRAF RBD) disruption / FRET / MOA assay, KRAS G12V; assay type: biochemical; conditions: read-out: IC50* KRAS G12V FRET data
Chain of KRAS G12V (P01116-2 other isoform, or with tags, fused parts or gaps G12V): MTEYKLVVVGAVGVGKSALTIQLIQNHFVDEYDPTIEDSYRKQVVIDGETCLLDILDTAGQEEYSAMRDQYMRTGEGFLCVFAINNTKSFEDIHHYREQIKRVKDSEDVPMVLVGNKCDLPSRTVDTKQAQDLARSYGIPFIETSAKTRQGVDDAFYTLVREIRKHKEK
Chain of KRAS G12V (P62937 whole entry): as the sequence (P62937 whole entry, canonical isoform) above
Method in brief: as §6

NRAS Q61R = NRAS Q61R (Homo sapiens (Human), UniProt P01111+P62937, Q61R); assay: Ras-Raf (BRAF RBD) disruption / FRET / MOA assay, NRAS Q61R; assay type: biochemical; conditions: NRAS Q61R; Ras-Raf disruption/FRET/MOA assay; read-out: IC50* NRAS Q61R FRET data
Chain of NRAS Q61R (P01111 whole entry Q61R): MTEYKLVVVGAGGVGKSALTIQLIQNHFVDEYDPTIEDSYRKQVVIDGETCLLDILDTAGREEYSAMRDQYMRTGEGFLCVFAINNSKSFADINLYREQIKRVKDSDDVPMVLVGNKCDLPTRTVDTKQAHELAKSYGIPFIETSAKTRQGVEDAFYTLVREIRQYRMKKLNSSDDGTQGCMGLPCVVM
Chain of NRAS Q61R (P62937 whole entry): as the sequence (P62937 whole entry, canonical isoform) above
Description: as §1, §2, §3, §4, §5

NRAS G12C = NRAS G12C (Homo sapiens (Human), UniProt P01111+P62937, G12C); assay: Ras-Raf (BRAF RBD) disruption / FRET / MOA assay, NRAS G12C; assay type: biochemical; conditions: read-out: IC50* NRAS G12C FRET data
Chain of NRAS G12C (P01111 whole entry G12C): as the sequence (P01111 whole entry Q61R) above, with G12C, R61Q counted along it
Chain of NRAS G12C (P62937 whole entry): as the sequence (P62937 whole entry, canonical isoform) above
Method in brief: as §6

NRAS Q61K = NRAS Q61K (Homo sapiens (Human), UniProt P01111+P62937, Q61K); assay: Ras-Raf (BRAF RBD) disruption / FRET / MOA assay, NRAS Q61K; assay type: biochemical; conditions: NRAS Q61K; Ras-Raf disruption/FRET/MOA assay; read-out: IC50* NRAS Q61K FRET data
Chain of NRAS Q61K (P01111 whole entry Q61K): as the sequence (P01111 whole entry Q61R) above, with R61K counted along it
Chain of NRAS Q61K (P62937 whole entry): as the sequence (P62937 whole entry, canonical isoform) above
Description: as §1, §2, §3, §4, §5

KRAS WT = KRAS WT (Homo sapiens (Human), UniProt P01116+P62937); assay: Ras-Raf (BRAF RBD) disruption / FRET / MOA assay, KRAS WT; assay type: biochemical; conditions: read-out: IC50* KRAS WT FRET data
Chain of KRAS WT (P01116-2 other isoform, or with tags, fused parts or gaps): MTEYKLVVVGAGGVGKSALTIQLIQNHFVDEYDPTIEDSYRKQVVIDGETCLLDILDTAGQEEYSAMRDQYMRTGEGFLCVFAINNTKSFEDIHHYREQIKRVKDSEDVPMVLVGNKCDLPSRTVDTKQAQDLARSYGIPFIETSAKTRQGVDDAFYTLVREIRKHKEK
Chain of KRAS WT (P62937 whole entry): as the sequence (P62937 whole entry, canonical isoform) above
Method in brief: as §6

K-Ras G13C = K-Ras G13C (Homo sapiens (Human), UniProt P01116+P62937, G13C); assay: Ras-Raf (BRAF RBD) disruption / FRET / MOA assay, KRAS G13C; assay type: biochemical; conditions: KRAS G13C; Ras-Raf disruption/FRET/MOA assay; read-out: IC50* KRAS G13C FRET data
Chain of K-Ras G13C (P01116-2 other isoform, or with tags, fused parts or gaps G13C): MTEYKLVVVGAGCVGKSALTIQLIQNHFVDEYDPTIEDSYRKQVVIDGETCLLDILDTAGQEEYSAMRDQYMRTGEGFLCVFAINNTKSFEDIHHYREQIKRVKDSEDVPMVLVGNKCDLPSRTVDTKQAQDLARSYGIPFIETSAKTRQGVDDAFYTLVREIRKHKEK
Chain of K-Ras G13C (P62937 whole entry): as the sequence (P62937 whole entry, canonical isoform) above
Method in brief: as §6

NRAS WT = NRAS WT (Homo sapiens (Human), UniProt P01111+P62937); assay: Ras-Raf (BRAF RBD) disruption / FRET / MOA assay, NRAS WT; assay type: biochemical; conditions: read-out: IC50* NRAS WT FRET data
Chain of NRAS WT (P01111 whole entry): as the sequence (P01111 whole entry Q61R) above, with R61Q counted along it
Chain of NRAS WT (P62937 whole entry): as the sequence (P62937 whole entry, canonical isoform) above
Description: as §1, §2, §3, §4, §5

KRAS G13D = KRAS G13D (Homo sapiens (Human), UniProt P01116+P62937, G13D); assay: Ras-Raf (BRAF RBD) disruption / FRET / MOA assay, KRAS G13D; assay type: biochemical; conditions: read-out: IC50* KRAS G13D FRET data
Chain of KRAS G13D (P01116-2 other isoform, or with tags, fused parts or gaps G13D): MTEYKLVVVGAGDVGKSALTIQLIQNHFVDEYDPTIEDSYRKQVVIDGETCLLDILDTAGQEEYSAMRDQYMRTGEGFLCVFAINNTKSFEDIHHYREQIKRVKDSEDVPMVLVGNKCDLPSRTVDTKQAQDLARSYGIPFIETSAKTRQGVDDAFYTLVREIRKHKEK
Chain of KRAS G13D (P62937 whole entry): as the sequence (P62937 whole entry, canonical isoform) above
Method in brief: as §6

[2] = Ras-Raf disruption/FRET/MOA assay; class symbols; read-out: KRAS Q61H FRET data IC50
[3] = Ras-Raf disruption/FRET/MOA assay; class symbols; read-out: KRAS G12D FRET data IC50
[4] = Ras-Raf disruption/FRET/MOA assay; class symbols; read-out: KRAS G12S FRET data IC50

Structure (SMILES)	EC50 [1] [nM]	IC50 (NCI-H358 (K-Ras G12C)) [nM]	IC50 (KRAS Q61H; [2]) [nM]	IC50 (KRAS G12D; [3]) [nM]	IC50 (KRAS G12S; [4]) [nM]	also measured
C=CC(=O)N1CC[C@H](C(=O)N(C)[C@H](C(=O)N[C@H]2Cc3cc(sn3)-c3ccc4c(c3)c(c(-c3cccnc3[C@H](C)OC)n4CC)CC(C)(C)COC(=O)[C@@H]3CCCN(N3)C2=O)C(C)C)C1 (atropisomer, axis not shown) [Example A277]	–	–	–	–	–	EC50 ([1]; Homo sapiens, NCI-H358): < 5000 nM; IC50 (NCI-H358 (K-Ras G12C); Homo sapiens, NCI-H358, 120 h): 100 to 1000 nM; IC50 (KRAS Q61H; read-out: KRAS Q61H FRET data IC50; Ras-Raf disruption/FRET/MOA assay; class symbols): 100 to 1000 nM; IC50 (KRAS G12D; read-out: KRAS G12D FRET data IC50; Ras-Raf disruption/FRET/MOA assay; class symbols): > 10000 nM; IC50 (KRAS G12S; read-out: KRAS G12S FRET data IC50; Ras-Raf disruption/FRET/MOA assay; class symbols): 1000 to 10000 nM
C=CC(=O)N1CC[C@H](C(=O)N(C)[C@H](C(=O)N[C@H]2CC3=NC=C(O3)c3ccc4c(c3)c(c(-c3cccnc3[C@H](C)OC)n4CC)CC(C)(C)COC(=O)[C@@H]3CCCN(N3)C2=O)C(C)C)C1 (atropisomer, axis not shown) [Example A331]	< 5000	100 to 1000	1000 to 10000	> 10000	1000 to 10000	–
CCn1c(-c2cccnc2[C@H](C)OC)c2c3cc(ccc31)-c1cccc(c1)C[C@H](NC(=O)[C@H](C(C)C)N(C)C(=O)[C@H]1CCN(C(=O)C#CC(C)(C)N(C)C)C1)C(=O)N1CCC[C@H](N1)C(=O)OCC(C)(C)C2 (atropisomer, axis not shown) [Example A339]	< 5000	< 10	1000 to 10000	> 10000	1000 to 10000	–
C=CC(=O)N(C)[C@H]1CCN(C(=O)N(C)[C@H](C(=O)N[C@H]2Cc3nc(cs3)-c3ccc4c(c3)c(c(-c3cccnc3[C@H](C)OC)n4CC)CC(C)(C)COC(=O)[C@@H]3CCCN(N3)C2=O)C(C)C)C1 (atropisomer, axis not shown) [Example A384]	–	–	–	100 to 1000	100 to 1000	IC50 (KRAS G12V): 100 to 1000 nM; EC50 ([1]; Homo sapiens, NCI-H358): < 5000 nM; IC50 (NCI-H358 (K-Ras G12C); Homo sapiens, NCI-H358, 120 h): < 10 nM; IC50 (NRAS Q61R): 100 to 1000 nM; IC50 (NRAS G12C): 10 to 100 nM; IC50 (NRAS Q61K): 10 to 100 nM; IC50 (KRAS WT): 100 to 1000 nM; IC50 (K-Ras G13C): 100 to 1000 nM; IC50 (NRAS WT): 100 to 1000 nM
C=CC(=O)N1CCN(C(=O)N(C)[C@H](C(=O)N[C@H]2Cc3nc(cs3)-c3ccc4c(c3)c(c(-c3cccnc3[C@H](C)OC)n4CC)CC(C)(C)COC(=O)[C@@H]3CCCN(N3)C2=O)C(C)C)CC1 (atropisomer, axis not shown) [Example A492]	< 5000	< 10	10 to 100	100 to 1000	10 to 100	–
C=CC(=O)N1CCN(C(=O)N(C)[C@H](C(=O)N[C@H]2Cc3nc(cs3)-c3ccc4c(c3)c(c(-c3cccnc3[C@H](C)OC)n4CC)CC(C)(C)COC(=O)[C@@H]3CCCN(N3)C2=O)C(C)C)CC1 (atropisomer, axis not shown) [Example A493]	< 5000	< 10	10 to 100	100 to 1000	10 to 100	–
C=CC(=O)N1CC[C@H](C(=O)N(C)[C@H](C(=O)N[C@H]2Cc3cc(CF)cc(c3)-c3ccc4c(c3)c(c(-c3cccnc3[C@H](C)OC)n4CC)CC(C)(C)COC(=O)[C@@H]3CCCN(N3)C2=O)C(C)C)C1 (atropisomer, axis not shown) [Example A504]	< 5000	< 10	100 to 1000	1000 to 10000	1000 to 10000	–
C=CC(=O)N1CC[C@H](C(=O)N(C)[C@H](C(=O)N[C@H]2Cc3cc(CF)cc(c3)-c3ccc4c(c3)c(c(-c3cccnc3[C@H](C)OC)n4CC)CC(C)(C)COC(=O)[C@@H]3CCCN(N3)C2=O)C(C)C)C1 (atropisomer, axis not shown) [Example A505]	< 5000	< 10	100 to 1000	1000 to 10000	1000 to 10000	–
CCn1c(-c2cccnc2[C@H](C)OC)c2c3cc(ccc31)N1CCC[C@@H](C[C@H](NC(=O)[C@H](C(C)C)N(C)C(=O)C3(F)CCN(C(=O)C#CC(C)(C)N(C)C)CC3)C(=O)N3CCC[C@H](N3)C(=O)OCC(C)(C)C2)C1 (atropisomer, axis not shown) [Example A616]	< 5000	< 10	1000 to 10000	> 10000	1000 to 10000	IC50 (KRAS G13D): 1000 to 10000 nM; IC50 (KRAS G12V): 1000 to 10000 nM; IC50 (NRAS G12C): < 10 nM; IC50 (KRAS WT): 1000 to 10000 nM; IC50 (K-Ras G13C): 1000 to 10000 nM; IC50 (NRAS WT): 1000 to 10000 nM
C=CC(=O)N1CC[C@H](C(=O)N(C)[C@H](C(=O)N[C@H]2Cc3cc(O)cc(c3)-c3ccc4c(c3)c(c(-c3cnn5c3[C@@H](OC)CCC5)n4CC)CC(C)(C)COC(=O)[C@@H]3CCCN(N3)C2=O)C(C)C)C1 [Example A333]	< 5000	< 10	10 to 100	100 to 1000	10 to 100	–
C=CC(=O)N1CCN(C(=O)N(C)[C@H](C(=O)N[C@H]2Cc3cc(O)cc(c3)-c3ccc4c(c3)c(c(-c3cccnc3[C@H](C)OC)n4CC)CC(C)(C)COC(=O)[C@@H]3CCCN(N3)C2=O)C(C)C)CC1 [Example A338]	< 5000	10 to 100	10 to 100	100 to 1000	10 to 100	–
C=CC(=O)N1CCOC2(CCN(C(=O)N(C)[C@H](C(=O)N[C@H]3CN4CCC=C(C4)c4ccc5c(c4)c(c(-c4cccnc4[C@H](C)OC)n5CC)CC(C)(C)COC(=O)[C@@H]4CCCN(N4)C3=O)C(C)C)CC2)C1 [Example A563]	< 5000	100 to 1000	1000 to 10000	> 10000	1000 to 10000	–
